Results as given in patent publication US20170073337A1, “DIHYDROTHIAZINE AND DIHYDROOXAZINE DERIVATIVES HAVING BACE1 INHIBITORY ACTIVITY” (Shionogi & Co., Ltd., priority 2014, published 2017).

What was measured:
[1] = Pharmacokinetic study (oral absorption); assay type: in vivo; conditions: bioavailability from AUCs of oral and intravenous administration; mouse or rat
Description: (1l) Animal: mouse or rat (2) Breeding conditions: mouse or rat was allowed free access to the tap water and the solid food. (3) Dose and grouping: orally or intravenously administered at a predetermined dose: grouping was as follows (Dose depends on the compound) Oral administration: 1 to 30 mg/kg (n=2 to 3) Intravenous administration: 0.5 to 10 mg/kg (n=2 to 3) (4) Dosing formulation: for oral administration, in a solution or a suspension state; for intravenous administration, in a solubilized state (5) Dosing method: in oral administration, forcedly administer using a syringe attached a flexible feeding tube; in intravenous administration, administer from caudal vein using a syringe attached with a needle. (6) Evaluation items: blood was collected at the scheduled time, and the plasma concentration of the compound of the present invention was measured by LC/MS/MS (7) Statistical analysis: regarding the transition of the plasma concentration of the compound of the present invention, the area under the plasma concentration-time curve (AUC) was calculated by non-linear least squares program WinNonlin (Registered trademark), and the bioavailability (BA) of the compound of the present invention was calculated from the AUCs of the oral administration group and intravenous administration group

[2] = target: T1, P-gp (Mus musculus, UniProt P21447); experiment: P-gp substrate test using mdr1a (−/−) B6 mice; assay type: in vivo; conditions: Kp in KO mouse (mdr1a (−/−) B6) / Kp in Wild mouse; for Kp at 2 h: mdr1a (−/−) B6 (KO) and C57BL/6J (wild), mouse, brain / plasma, po, 2 mg/kg, read-out: Kp ratio (2 mg/kg, po, 2 hr)
T1 construct: from tissue; host or cells: living mice (brain/plasma distribution), wild type versus mdr1a (−/−)
T1 sequence (P21447 whole entry): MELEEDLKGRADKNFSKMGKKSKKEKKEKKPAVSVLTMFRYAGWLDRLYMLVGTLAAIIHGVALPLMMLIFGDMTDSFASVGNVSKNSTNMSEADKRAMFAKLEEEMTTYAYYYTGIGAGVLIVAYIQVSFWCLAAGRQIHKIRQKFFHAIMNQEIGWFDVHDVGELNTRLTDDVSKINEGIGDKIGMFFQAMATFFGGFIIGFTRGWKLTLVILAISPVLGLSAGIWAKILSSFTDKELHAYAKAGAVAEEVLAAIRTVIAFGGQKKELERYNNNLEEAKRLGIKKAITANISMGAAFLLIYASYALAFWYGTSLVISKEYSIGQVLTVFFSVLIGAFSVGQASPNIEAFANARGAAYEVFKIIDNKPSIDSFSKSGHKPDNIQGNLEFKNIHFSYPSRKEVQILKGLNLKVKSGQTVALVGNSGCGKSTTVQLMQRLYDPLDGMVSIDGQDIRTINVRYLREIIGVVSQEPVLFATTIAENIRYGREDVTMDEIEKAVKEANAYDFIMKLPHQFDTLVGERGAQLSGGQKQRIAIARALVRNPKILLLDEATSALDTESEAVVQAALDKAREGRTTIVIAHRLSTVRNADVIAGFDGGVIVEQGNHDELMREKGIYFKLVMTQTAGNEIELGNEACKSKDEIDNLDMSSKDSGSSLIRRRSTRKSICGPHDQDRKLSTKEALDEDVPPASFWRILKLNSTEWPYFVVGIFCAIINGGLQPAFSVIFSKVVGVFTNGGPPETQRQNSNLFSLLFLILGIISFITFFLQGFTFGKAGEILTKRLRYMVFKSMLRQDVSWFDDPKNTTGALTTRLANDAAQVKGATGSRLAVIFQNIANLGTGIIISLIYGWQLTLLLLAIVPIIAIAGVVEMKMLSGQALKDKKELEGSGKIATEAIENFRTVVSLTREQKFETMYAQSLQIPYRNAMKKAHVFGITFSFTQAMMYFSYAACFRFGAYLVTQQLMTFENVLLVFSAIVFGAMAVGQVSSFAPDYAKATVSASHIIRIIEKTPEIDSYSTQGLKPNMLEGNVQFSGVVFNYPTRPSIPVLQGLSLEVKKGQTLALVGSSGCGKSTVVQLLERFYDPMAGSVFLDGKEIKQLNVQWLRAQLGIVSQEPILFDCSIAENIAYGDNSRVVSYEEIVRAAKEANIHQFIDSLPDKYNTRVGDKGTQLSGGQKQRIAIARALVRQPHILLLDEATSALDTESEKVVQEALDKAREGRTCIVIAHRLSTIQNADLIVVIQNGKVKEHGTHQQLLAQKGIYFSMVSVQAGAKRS
Description: Animal: mdrla (−/−) B6 mice (KO mouse) or […] mice (Wild mouse)
1. Animals may be fed prior to dosing of the compounds of the present invention. 2. The compounds of the present invention were dosed to three animals for each time point and blood and brain samples were removed at selected time points (e.g. 15 min, 30 min, 1 hr, 2 hr, 4 hr, 6 hr, 8 hr, or 24 hr) after dosing. Blood (0.3-0.7 mL) was collected via trunk blood collection with syringe containing anticoagulants (EDTA and heparin). Blood and tissue (e.g. brain) samples were immediately placed on melting ice. 3. Blood samples were centrifuged (1780×g for 10 minutes) for cell removal to obtain plasma. Then, plasma samples were transferred to a clean tube and stored in a −70° C. freezer until analysis. 4. Tissue (e.g. brain) samples were homogenized at a 1:3 ratio of tissue weight to ml of stilled water and transferred to a clean tube and stored in a −70° C. freezer until analysis. 5. Plasma and tissue (e.g. brain) samples were prepared using protein prceipitation and analyzed by LC/MS/MS. The analytical method was calibrated by including a standard curve constructed with blank plasma or brain samples and known quantities of analyte. Quality control samples were included to monitor the accuracy and precision of the methodology. 6. Plasma and brain concentration values (ng/mL and ng/g) were introduced into an appropriate tool used for calculating the pharmacokinetic parameters. A common platform was the WinNonlin (Registered trademark) pharmacokinetic software modeling program.
Kp: Tissue to Plasma concentration ratio Kp ratio=Kp in KO mouse/Kp in Wild mouse KO/Wild ratio of AUC Tissue/AUC Plasma ={AUC Tissue/AUC Plasma (KO mouse)}/{AUC Tissue/AUC Plasma (Wild mouse)}

[3] = target: T2, Recombinant human BACE1 (Homo sapiens, UniProt P56817); experiment: Assay of BACE1 inhibitory activity: 96-well; assay type: biochemical; conditions: Assay format 96-well
T2 construct: purchased R&D Systems
T2 sequence (P56817 46-501): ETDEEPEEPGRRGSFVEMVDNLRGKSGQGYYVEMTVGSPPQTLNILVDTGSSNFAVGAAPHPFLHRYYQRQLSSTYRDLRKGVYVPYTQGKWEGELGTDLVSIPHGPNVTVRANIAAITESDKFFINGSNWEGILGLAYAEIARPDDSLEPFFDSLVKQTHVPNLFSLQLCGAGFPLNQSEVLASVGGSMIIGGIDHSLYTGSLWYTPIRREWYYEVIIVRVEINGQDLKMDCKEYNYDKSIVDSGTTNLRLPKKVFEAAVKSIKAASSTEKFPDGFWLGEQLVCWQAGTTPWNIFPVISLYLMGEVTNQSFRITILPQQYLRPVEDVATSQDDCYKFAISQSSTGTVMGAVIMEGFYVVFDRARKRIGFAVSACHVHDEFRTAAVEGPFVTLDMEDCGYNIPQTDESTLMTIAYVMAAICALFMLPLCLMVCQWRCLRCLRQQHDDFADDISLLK
Description: 48.5 μL of substrate peptide solution (Biotin-XSEVNLDAEFRHDSGC-Eu: X=ε-amino-n-capronic acid. Eu=Europium cryplate) was added to each well of 96-hole half-area plate (a black plate: Costar), and after addition of 0.5 μl of the compound of the present invention (DMSO solution) and 1 μl of Recombinant human BACE1(R&D Systems), the reaction mixture was incubated at 30° C. for 3.5 hours. The substrate peptide was synthesized by reacting Cryptate TBPCOOH mono SMP (CIS bio international) with Biotin-XSEVNLDAEFRHDSGC (Peptide Institute, Inc.).
After the incubation for reaction, 50 μl of 8.0 μg/ml Streptavidin-XL665 (CIS bio international) dissolved in phosphate buffer (150 mmol/L […]—KH2PO4, pH 7.0, 0.008% Triton X-100, 0.8 mol/L KF) was added to each well and left stand at 30° C. for 45 minutes.

[4] = test system: Aβ production in neuroblastoma SH-SY5Y cells (SH/APPwt); experiment: β-amyloid (Aβ) production inhibitory effect in cell: 384-well; assay type: cell-based; conditions: Homo sapiens, Assay format 384-well
Summary of the method: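 SH-SY5Y cells overexpressing human wild-type APP were seeded together with test compound (final DMSO 1%) and cultured for 21 h. Aβ1-40 in the supernatant was measured by HTRF after overnight incubation at 4 °C in the dark, reading fluorescence at 620 and 665 nm.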

Row | SMILES | BA_% [1] [%] | Kp at 2 h [2] | IC50 [3] [nM] | IC50 [4] [nM] | Kp ratio (2 mg/kg, po, 2 hr) [2]
1 | C[C@H]1SC(N)=N[C@](C)(c2nc(NC(=O)c3ccc(C#N)cn3)ccc2F)[C@H]1F [Compound I-1] | 66.7 | 4.12 | 13.3 |  | 
2 | C[C@H]1SC(N)=N[C@](C)(c2nc(NC(=O)c3ccc(F)cn3)ccc2F)[C@H]1F [Compound I-2] | 51.3 | 0.959 | 67.9 |  | 
3 | C[C@H]1SC(N)=N[C@](C)(c2nc(NC(=O)c3cnc(OCF)cn3)ccc2F)[C@H]1F [Compound I-3] | 38.8 | 5.16 | 61.3 |  | 
4 | C[C@]1(c2nc(NC(=O)c3ccc(C#N)cn3)ccc2F)N=C(N)S[C@H](CF)[C@@H]1F [Compound I-4] | 83.2 | 2.92 | 11.5 |  | 
5 | C[C@@]1(c2cc(NC(=O)c3ccc(C#N)cn3)ccc2F)C[C@@](C)(C(F)(F)F)OC(N)=N1 [Compound I-7] | 32.8 | 4.21 | 47.5 |  | 
6 | COc1cnc(C(=O)Nc2ccc(F)c([C@@]3(C)N=C(N)S[C@H](C)[C@@H]3F)c2)cn1 [Compound I-8] | 27.4 | 2.22 | 11.8 |  | 
7 | C[C@]1(c2cc(NC(=O)c3ccc(C#N)cn3)ccc2F)N=C(N)O[C@H](CF)[C@@H]1OCC(F)(F)F [Compound I-10] | 46.3 |  | 25.8 |  | 
8 | C[C@]1(c2cc(NC(=O)c3cnc(OCF)cn3)ccc2F)N=C(N)O[C@H](CF)[C@@H]1OCC(F)(F)F [Compound I-12] | 47.4 |  | 56.8 |  | 
9 | C[C@H](F)[C@H]1OC(N)=N[C@](C)(c2cc(NC(=O)c3ccc(C#N)cn3)ccc2F)[C@H]1F [Compound I-13] | 47.3 |  | 32 |  | 
10 | C[C@@H](F)[C@H]1OC(N)=N[C@](C)(c2cc(NC(=O)c3ccc(C#N)cn3)ccc2F)[C@H]1F [Compound I-15] | 37.4 |  | 15.2 |  | 
11 | CO[C@H]1[C@@H](CF)OC(N)=N[C@]1(C)c1cc(NC(=O)c2cnc(OCF)cn2)ccc1Cl [Compound I-19] | 39.1 |  | 46.5 |  | 
12 | CO[C@H]1[C@@H](CF)OC(N)=N[C@]1(C)c1cc(NC(=O)c2cnc(OCF)cn2)ccc1F [Compound I-24] | 44 |  | 97 |  | 
13 | C[C@H]1[C@@H](C(F)(F)F)OC(N)=N[C@]1(C)c1cc(NC(=O)c2ccc(C#N)cn2)ccc1F [Compound I-28] |  | 5.41 | 22.6 |  | 
14 | C[C@H]1[C@@H](C(F)(F)F)OC(N)=N[C@]1(C)c1cc(NC(=O)c2cnc(OCF)cn2)ccc1F [Compound I-30] |  | 3.63 | 52.1 |  | 
15 | C[C@]1(c2cc(NC(=O)c3ccc(C#N)cn3)ccc2F)N=C(N)O[C@H]2[C@@H]1OCC2(F)F [Compound I-35] |  | 5.15 | 13.1 |  | 
16 | CC(F)(F)[C@H]1OC(N)=N[C@](C)(c2cc(NC(=O)c3ccc(C#N)cn3)ccc2F)[C@H]1F [Compound I-40] | 36.2 | 6.97 |  | 6 | 
17 | C[C@H]1[C@@H](C(F)(F)F)OC(N)=N[C@]1(C)c1cc(NC(=O)c2cnc(OCF)cn2)ccc1F [Compound I-41] | 35.2 |  |  | 15 | 2.66
18 | COc1cnc(C(=O)Nc2ccc(F)c([C@@]3(C)N=C(N)O[C@H](C(C)(F)F)[C@@H]3F)c2)cn1 [Compound I-42] | 28.7 | 2.07 |  | 21 | 
19 | C[C@H]1SC(N)=N[C@](C)(c2cc(NC(=O)c3cnc(OCC(F)(F)F)cn3)ccc2F)[C@H]1F [Compound I-46] | 22.2 | 6.13 |  | 2.4 | 
20 | C[C@H]1SC(N)=N[C@](C)(c2cc(NC(=O)c3cnc(OC(F)F)cn3)ccc2F)[C@H]1F [Compound I-47] |  | 2.12 |  | 1.2 | 
21 | C[C@H]1SC(N)=N[C@](C)(c2cc(NC(=O)c3cnc(OCC(F)F)cn3)ccc2F)[C@H]1F [Compound I-48] |  | 5.57 |  | 5.4 | 
22 | Cc1cc(C#N)cnc1C(=O)Nc1ccc(F)c([C@@]2(C)N=C(N)S[C@H](C)[C@@H]2F)c1 [Compound I-52] | 39.1 |  |  | 0.42 | 
23 | C[C@H]1SC(N)=N[C@](C)(c2cc(NC(=O)c3ccc(F)cn3)ccc2F)[C@H]1F [Compound I-116] | 78.7 | 4.54 |  | 0.99 | 
